From US12090204B2, “Photodynamic therapy compositions and methods of use thereof” (Pinnacle Biologics, Inc., priority 2020, dated 2024)

Experiments:
[1] = system: M. catarrhalis (−); assay: porfimer sodium aPDT, 48 hour biofilm culture; assay type: cell-based, Moraxella catarrhalis; conditions: 630 nm, kill at 75 J/cm2 (light dose 75-100 J/cm2), porfimer sodium 250 μg/mL
Procedure: (§1) Bacteria were routinely cultured using tryptic soy broth or agar at 37° C. in a 5% CO2 incubator. Bacteria were isolated and suspended with 0.9% NaCl to an Optical Density (OD) of 0.1 taken at 630 nm, to generate the inoculum used for either planktonic or biofilm assays.
(§2) The colony forming units (CFU) per mL of the starting inoculum for every experiment was determined by dilution plating. Control samples were exposed to laser at 630 nm in the absence of porfimer sodium, porfimer sodium in the absence of laser exposure, or in saline alone in the absence of porfimer sodium and 630 nm laser light. All experimental samples were dilution plated to enumerate viable CFU's. Three independent replicates were performed for each reaction condition per strain per assay. […]
(§3) Bacteria were exposed to 630 nm laser light via a fiber optic with a lens affixed to the distal end to provide a uniform diverging light field. […] Power output of the laser was measured using a UDT/Gamma Scientific 371 optical power meter and an integrating sphere. […]
(§4) Biofilms were formed on glass coupons in culture dishes containing a bacterial inoculum for 48 hours under conditions specific to the strain. […] Power output of the laser was measured using a UDT/Gamma Scientific 371 optical power meter and an integrating sphere. […]

[2] = system: F. nucleatum (−); assay: porfimer sodium aPDT, 48 hour biofilm culture; assay type: cell-based, Fusobacterium nucleatum; conditions: 630 nm, kill at 100 J/cm2 (light dose 75-100 J/cm2), porfimer sodium 250 μg/mL
Procedure: as §1, §2, §3, §4

[3] = system: B. thurigiensis (+); assay: porfimer sodium aPDT, planktonic culture; assay type: cell-based, Bacillus thuringiensis; conditions: 630 nm, 200 J/cm2, porfimer sodium 125 μg/mL
Procedure: as §1
(§5) Experiments using planktonic cultures were carried out using M. catarrhalis, as a standard for further comparisons and to determine the effective drug concentration, porfimer sodium incubation time and light dose parameters which would provide an effective cell kill at the level of 5-7 logs. Once determined the experiments were repeated for all other bacterial strains examined.
(§6) The colony forming units (CFU) per mL of the starting inoculum for every experiment was determined by dilution plating. […]
as §3, §4

[4] = system: S. pneumo (+); assay: porfimer sodium aPDT, planktonic culture; assay type: cell-based, Streptococcus pneumoniae; conditions: 630 nm, 100 J/cm2, porfimer sodium 125 μg/mL
Procedure: as §1, §5, §6, §3, §4

[5] = system: A. baumannii (−); assay: porfimer sodium aPDT, planktonic culture; assay type: cell-based, Acinetobacter baumannii; conditions: 630 nm, 200 J/cm2, porfimer sodium 125 μg/mL
Procedure: as §1, §5, §6, §3, §4

[6] = system: Y. intermedia (−); assay: porfimer sodium aPDT, planktonic culture; assay type: cell-based, Yersinia intermedia; conditions: 630 nm, 200 J/cm2, porfimer sodium 125 μg/mL
Procedure: as §1, §5, §6, §3, §4

[7] = system: S. Mutans (+); assay: porfimer sodium aPDT, planktonic culture; assay type: cell-based, Streptococcus Mutans; conditions: 630 nm, 200 J/cm2, porfimer sodium 125 μg/mL
Procedure: as §1, §5, §6, §3, §4

porfimer sodium
Rate of kill [1]: >6Log | Rate of kill [2]: 3Log | Rate of kill [3]: >6Log | Rate of kill [4]: >4Log | Rate of kill [5]: 1Log | Rate of kill [6]: 7Log | Rate of kill [7]: >7Log
